Consider 19 molecules from patent publication US12344623B2, “Thiazolopyridine derivatives as adenosine receptor antagonists” (Merck Patent GmbH, priority 2019, dated 2025).

The structures appear in SMILES notation. Where two headings read alike, the source gives them in different places.

Format in all cases: cell-based
Assay [1] has as its target T1, human A2A receptor (Homo sapiens, UniProt P29274). The assay is described as follows: Human T cells, endogenous A2A receptor, cAMP, agonist NECA. Here is the method: The endogenous functional activity of the Gs-coupled human A2A receptor was measured in T cells, where this receptor is highly expressed. Determination of receptor activity was done by quantification of cAMP, which is a second messenger for adenosine receptors.
In short, human pan T cells were isolated from human PBMC (MACS Pan T Cell Isolation Kit, Miltenyi Biotec) that have been derived from fresh whole blood. The T cells were seeded in 384-well microtiter plates and treated with test compounds. […] Finally, HTRF reagents (cAMP Femto Kit, CisBio) were added to the wells, and after 1 h cellular cAMP levels were determined using the ENVISION (Perkin Elmer) plate reader.
The obtained raw data were normalized against the inhibitor control and the neutral control (DMSO) and the normalized data were fitted using Genedata Screener software.

The next assay concerns the target T2, human A3 receptor (Homo sapiens, UniProt P0DMS8).
T2 construct: expressed in transfected cells; host or cells: CHO
T2 sequence (P0DMS8 1-318): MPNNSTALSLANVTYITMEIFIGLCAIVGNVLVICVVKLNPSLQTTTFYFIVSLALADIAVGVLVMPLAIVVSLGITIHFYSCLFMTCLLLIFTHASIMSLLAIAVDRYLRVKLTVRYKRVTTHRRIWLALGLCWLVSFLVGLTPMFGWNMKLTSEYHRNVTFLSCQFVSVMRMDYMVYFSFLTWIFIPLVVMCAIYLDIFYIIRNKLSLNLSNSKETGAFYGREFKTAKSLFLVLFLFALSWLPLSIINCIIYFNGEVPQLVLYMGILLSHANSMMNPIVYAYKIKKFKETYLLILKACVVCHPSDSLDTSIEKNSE
In words: Functional A3 receptor activity, recombinant CHO cells, cAMP (HTRF), forskolin, agonist IB-MECA. The following applies: recombinant CHO cells, forskolin, agonist IB-MECA; read-out: Functional A3 receptor activity, CHO, cAMP, IC50. A digest of the protocol:
(§1)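 Gi-coupled readout: CHO cells expressing human A1 or A3 receptor were treated with forskolin, test compound and agonist (CPA for A1, IB-MECA for A3) for 30 min; cellular cAMP was then measured by HTRF. Data were normalized to inhibitor and DMSO controls and curve-fitted.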
A general note: In TR-FRET formats the signal depends on donor and acceptor labels being close together.

The target in the next assay is T3, human A1 receptor (Homo sapiens, UniProt P30542).
T3 construct: expressed in transfected cells; host or cells: CHO
T3 sequence (P30542 1-326): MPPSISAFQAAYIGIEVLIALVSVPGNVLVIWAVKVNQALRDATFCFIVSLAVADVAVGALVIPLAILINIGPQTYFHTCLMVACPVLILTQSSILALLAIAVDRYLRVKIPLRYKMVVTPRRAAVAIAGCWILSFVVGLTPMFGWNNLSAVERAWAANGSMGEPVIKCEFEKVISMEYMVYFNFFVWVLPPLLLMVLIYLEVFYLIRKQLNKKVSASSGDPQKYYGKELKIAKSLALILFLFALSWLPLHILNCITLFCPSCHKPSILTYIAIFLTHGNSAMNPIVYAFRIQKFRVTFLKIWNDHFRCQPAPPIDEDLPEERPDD
The assay is described as follows: Functional A1 receptor activity, recombinant CHO cells, cAMP (HTRF), forskolin, agonist CPA. To be noted: recombinant CHO cells, forskolin, agonist CPA; read-out: Functional A1 receptor activity, CHO, cAMP, IC50. In outline: as §1

A further assay addresses T4, human A2B receptor (Homo sapiens, UniProt P29275).
T4 construct: expressed in transfected cells; host or cells: HEK293
T4 sequence (P29275 1-332): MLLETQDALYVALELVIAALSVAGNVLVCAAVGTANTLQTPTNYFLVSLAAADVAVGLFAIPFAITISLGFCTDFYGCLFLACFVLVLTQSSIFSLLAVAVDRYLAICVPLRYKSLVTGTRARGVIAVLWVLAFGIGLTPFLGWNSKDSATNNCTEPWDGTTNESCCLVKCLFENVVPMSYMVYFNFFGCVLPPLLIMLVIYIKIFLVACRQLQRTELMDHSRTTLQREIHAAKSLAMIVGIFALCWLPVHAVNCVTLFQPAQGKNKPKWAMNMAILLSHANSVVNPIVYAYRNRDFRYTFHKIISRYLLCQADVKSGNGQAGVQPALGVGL
The assay is described as follows: Functional A2B receptor activity, recombinant HEK293 cells, cAMP (HTRF), agonist NECA. In outline:
(§2)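 Forskolin, test compounds and agonist were added together to the cells and incubated for 30 min. Cellular cAMP was then quantified by HTRF. Raw signals were normalized to an inhibitor control and a neutral DMSO control, and the normalized data were curve-fitted.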

In assay [2] the target is T1, human A2A receptor. In words: Functional A2A receptor activity, recombinant HEK293 cells, cAMP (HTRF), agonist NECA. Also on record: expressed in transfected cells; host or cells: HEK293. A digest of the protocol: as §2
The mark [3] stands for this setting: read-out: hTcell data, cAMP, IC50.
Where [4] appears, read: read-out: Functional A2B receptor activity, HEK293, cAMP, IC50.
[5] abbreviates: read-out: Functional A2A receptor activity, HEK293, cAMP, IC50.

T1 sequence (P29274 whole entry): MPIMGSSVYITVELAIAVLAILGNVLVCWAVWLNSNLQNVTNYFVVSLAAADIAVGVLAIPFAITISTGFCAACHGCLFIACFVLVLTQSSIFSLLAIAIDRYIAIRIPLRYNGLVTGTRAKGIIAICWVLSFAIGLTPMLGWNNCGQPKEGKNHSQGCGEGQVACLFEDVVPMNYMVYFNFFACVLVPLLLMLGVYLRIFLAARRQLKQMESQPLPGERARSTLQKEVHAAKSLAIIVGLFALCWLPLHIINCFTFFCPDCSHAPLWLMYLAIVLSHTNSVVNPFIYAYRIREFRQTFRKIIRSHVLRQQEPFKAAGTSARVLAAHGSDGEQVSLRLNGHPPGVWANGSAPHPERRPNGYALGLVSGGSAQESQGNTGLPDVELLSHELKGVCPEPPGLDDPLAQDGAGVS

With `[2H]C([2H])([2H])Oc1ncc(C2=CCOCC2)c2sc(NC(=O)N3CC[C@@]4(CCCOC4)C3)nc12` [Compound 174, (5S)-N-[7-(3,6-dihydro-2H-pyran-4-yl)-4-(2H3)methoxy-[1,3]thiazolo[4,5-c]pyridin-2-yl]-7-oxa-2-azaspiro[4.5]decane-2-carboxamide], the IC50 – broadly, the concentration needed to halve the response being measured – was less than 10 nM at human A2A receptor [1]; more than 1000 nM on human A3 receptor; more than 1000 nM at human A1 receptor; less than 100 nM at human A2B receptor; less than 10 nM on human A2A receptor [2].

Turning to `COc1ncc(C2=CCOCC2)c2sc(NC(=O)c3ccc(-n4ccnn4)cc3)nc12` [Compound 71, N-[7-(3,6-dihydro-2H-pyran-4-yl)-4-methoxy-[1,3]thiazolo[4,5-c]pyridin-2-yl]-4-(1H-1,2,3-triazol-1-yl)benzamide], the IC50 on human A2A receptor [1] (setting [3]) is less than 10 nM; at human A3 receptor it was more than 1000 nM; on human A1 receptor it was less than 1000 nM; at human A2B receptor (setting [4]), less than 10 nM; on human A2A receptor [2] (setting [5]) it was less than 10 nM.

On to `COc1ncc(C2=CCOCC2)c2sc(NC(=O)c3ccc(C(=O)O)cc3)nc12` [Compound 72, 4-{[7-(3,6-dihydro-2H-pyran-4-yl)-4-methoxy-[1,3]thiazolo[4,5-c]pyridin-2-yl]carbamoyl}benzoic acid], for which the IC50 on human A2A receptor [1] (setting [3]) is less than 100 nM; at human A3 receptor, more than 1000 nM; at human A1 receptor, less than 1000 nM; on human A2B receptor (setting [4]), less than 10 nM; on human A2A receptor [2] (setting [5]), less than 10 nM.

Regarding `COc1ncc(C2COCCO2)c2sc(NC(=O)c3ccc(C(=O)O)cc3)nc12` (stereo not drawn) [Compound 161, N-(7-[1,4]Dioxan-2-yl-4-methoxy-thiazolo[4,5-c]pyridin-2-yl)-terephthalamic acid], the IC50 on human A2A receptor [1] (setting [3]) is less than 100 nM; at human A3 receptor, more than 1000 nM; on human A1 receptor, more than 1000 nM; at human A2B receptor (setting [4]) it was less than 100 nM; at human A2A receptor [2] (setting [5]), less than 10 nM.

On to `COc1ncc(C2COCCO2)c2sc(NC(=O)c3ccc(-c4nnn[nH]4)cc3)nc12` (stereo not drawn) [Compound 164, N-(7-[1,4]Dioxan-2-yl-4-methoxy-thiazolo[4,5-c]pyridin-2-yl)-4-(1H-tetrazol-5-yl)-benzamide], for which the IC50 on human A2A receptor [1] (setting [3]) was less than 100 nM; on human A3 receptor it was more than 1000 nM; at human A1 receptor, more than 1000 nM; at human A2B receptor (setting [4]), less than 10 nM; at human A2A receptor [2] (setting [5]), less than 10 nM.

`COC(=O)N(C)Cc1ccc(C(=O)Nc2nc3c(OC)ncc(-c4ccccc4)c3s2)cc1` [Compound 97, [4-(4-Methoxy-7-phenyl-thiazolo[4,5-c]pyridin-2-ylcarbamoyl)-benzyl]-methyl-carbamic acid methyl ester]: the IC50 is less than 100 nM at human A2A receptor [1] (setting [3]); more than 1000 nM on human A3 receptor; more than 1000 nM on human A1 receptor; less than 100 nM on human A2B receptor (setting [4]); less than 10 nM on human A2A receptor [2] (setting [5]).

Regarding `COc1ncc(-c2cnn(Cc3ccccn3)c2)c2sc(NC(=O)N3CCC4(CCOCC4)C3)nc12` [Compound 69, 8-Oxa-2-aza-spiro[4.5]decane-2-carboxylic acid [4-methoxy-7-(1-pyridin-2-ylmethyl-1H-pyrazol-4-yl)-thiazolo[4,5-c]pyridin-2-yl]-amide], the IC50 at human A2A receptor [1] (setting [3]) was less than 10 nM; at human A3 receptor it was less than 1000 nM; on human A1 receptor, less than 100 nM; on human A2B receptor (setting [4]), less than 10 nM; at human A2A receptor [2] (setting [5]), less than 10 nM.

Turning to `COc1ncc(C2=CCOCC2)c2sc(NC(=O)c3c[nH]cn3)nc12` [Compound 65, 1H-Imidazole-4-carboxylic acid [7-(3,6-dihydro-2H-pyran-4-yl)-4-methoxy-thiazolo[4,5-c]pyridin-2-yl]-amide], the IC50 on human A2A receptor [1] (setting [3]) is less than 10 nM; on human A3 receptor it was more than 1000 nM; on human A1 receptor it was less than 100 nM; at human A2B receptor (setting [4]) it was less than 10 nM; on human A2A receptor [2] (setting [5]), less than 10 nM.

Turning to `[2H]C([2H])([2H])Oc1ncc(C2=CCOCC2)c2sc(NC(=O)N3CC[C@]4(CCCOC4)C3)nc12` [Compound 173, (5R)-N-[7-(3,6-dihydro-2H-pyran-4-yl)-4-(2H3)methoxy-[1,3]thiazolo[4,5-c]pyridin-2-yl]-7-oxa-2-azaspiro[4.5]decane-2-carboxamide], the IC50 on human A2A receptor [1] (setting [3]) is less than 10 nM; at human A3 receptor, more than 1000 nM; on human A1 receptor it was less than 1000 nM; at human A2B receptor (setting [4]), less than 10 nM; at human A2A receptor [2] (setting [5]), less than 10 nM.

As for `COc1cnc(N2CCOCC2)c2sc(NC(=O)N3CCCCC3)nc12` [drawing 222], the IC50 at human A2A receptor [1] (setting [3]) is less than 1000 nM.

Take `COc1ncc(C2=CCOCC2)c2sc(NC(=O)N3CCC(N4C(=O)CSC4=O)CC3)nc12` [Compound 91, N-[7-(3,6-dihydro-2H-pyran-4-yl)-4-methoxy-[1,3]thiazolo[4,5-c]pyridin-2-yl]-4-(2,4-dioxo-1,3-thiazolidin-3-yl)piperidine-1-carboxamide]: the IC50 at human A2A receptor [1] (setting [3]) was less than 10 nM; on human A3 receptor, more than 1000 nM; on human A1 receptor, more than 1000 nM; on human A2B receptor (setting [4]), less than 10 nM; on human A2A receptor [2] (setting [5]) it was less than 10 nM.

`COc1ncc(-c2cnn(Cc3cccnc3)c2)c2sc(NC(=O)N3CCC4(CCOCC4)C3)nc12` [Compound 68, 8-Oxa-2-aza-spiro[4.5]decane-2-carboxylic acid [4-methoxy-7-(1-pyridin-3-ylmethyl-1H-pyrazol-4-yl)-thiazolo[4,5-c]pyridin-2-yl]-amide]: the IC50 at human A2A receptor [1] (setting [3]) is less than 10 nM; at human A3 receptor, more than 1000 nM; on human A2B receptor (setting [4]), less than 10 nM; on human A2A receptor [2] (setting [5]) it was less than 10 nM.

In the case of `COc1ncc(C2=CCOCC2)c2sc(NC(=O)c3cnc(C(=O)O)[nH]3)nc12` [Compound 168, 5-[7-(3,6-Dihydro-2H-pyran-4-yl)-4-methoxy-thiazolo[4,5-c]pyridin-2-ylcarbamoyl]-1H-imidazole-2-carboxylic acid], the IC50 at human A2A receptor [1] (setting [3]) is less than 100 nM; at human A3 receptor, more than 1000 nM; on human A2B receptor (setting [4]), less than 100 nM; at human A2A receptor [2] (setting [5]), less than 10 nM.

For `COc1ncc([C@H]2COCCO2)c2sc(NC(=O)c3ccc(C(=O)O)cc3)nc12` [Compound 170, N-((S)-7-[1,4]Dioxan-2-yl-4-methoxy-thiazolo[4,5-c]pyridin-2-yl)-terephthalamic acid], the IC50 is less than 10 nM at human A2A receptor [1] (setting [3]); more than 1000 nM at human A3 receptor; more than 1000 nM at human A1 receptor; less than 100 nM on human A2B receptor (setting [4]); less than 10 nM at human A2A receptor [2] (setting [5]).

Regarding `COc1ncc(C2=CCOCC2)c2sc(NC(=O)c3c[nH]c(-c4ccncc4)n3)nc12` [Compound 165, 2-Pyridin-4-yl-1H-imidazole-4-carboxylic acid [7-(3,6-dihydro-2H-pyran-4-yl)-4-methoxy-thiazolo[4,5-c]pyridin-2-yl]-amide], the IC50 on human A2A receptor [1] (setting [3]) was less than 10 nM; on human A3 receptor, more than 1000 nM; on human A2B receptor (setting [4]), less than 10 nM; on human A2A receptor [2] (setting [5]) it was less than 10 nM.

For `COc1ccc(N2CCOCC2)c2sc(NC(=O)N3CCC4(CCCO4)CC3)nc12` [drawing 219], at human A2A receptor [1] (setting [3]), the IC50 is less than 1000 nM.

On to `COc1cnc(N2CCOCC2)c2sc(NC(=O)N3CCOCC3)nc12` [drawing 223], for which the IC50 at human A2A receptor [1] (setting [3]) was less than 1000 nM.

As to `COc1cnc(N2CCOCC2)c2sc(NC(=O)N3CCC4(CCN(C)C4=O)CC3)nc12` [drawing 215], at human A2A receptor [1] (setting [3]), the IC50 was less than 1000 nM.

`COc1ccc(N2CCOCC2)c2sc(NC(=O)N3CCCCC3)nc12` [drawing 221]: the IC50 on human A2A receptor [1] (setting [3]) was less than 1000 nM.
